# Reference: patent US9005981B2, “Assays utilizing nicotinic acetylcholine receptor subunits” (priority 2008, dated 2015)
# Where two headings read alike, the source gives them in different places.
# What was measured:
# [1] = test system: Drosophila melanogaster flies of a spinosyn-resistant strain; experiment: Fly mortality screen, spinosyn-resistant flies; type: in vivo; details: for mortality: 100 ppm in 10% sucrose via cotton wicks, 72 hours post-treatment, spinosyn-resistant flies; for resistance of spinosyn A resistant flies compared to wild-type flies (based on LD50): dose-response data, LD50 resistant vs wild-type
# Description: (§1) Ten adult Drosophila melanogaster flies (5 males and 5 females) of the Oregon wild-type strain and ten adult flies of a spinosyn-resistant strain were used per treatment. Two sets (of 10 flies) were set-up per treatment. Stocks of spinosyn A and a 21-butenyl-spinosyn analog were formulated at 1000 ppm in 2:1 acetone:water and then diluted to the required concentration in 10% sucrose. Vials received 500 ul of treatment (or solvent for controls) via cotton wicks (approximately ¼ inch) and flies were added to each vial and capped with a cotton plug. Flies were monitored over 72 hours post-treatment while being maintained at room-temperature with a 12:12 light:dark cycle.
# (§2) In addition, the spinosyn A resistant flies were >100-fold resistant (based on LD50) to the new class of spinosyns, represented by the 21-butenyl spinosyns.
# [2] = test system: Drosophila melanogaster flies of the Oregon wild-type strain; experiment: Fly mortality screen, wild-type flies; type: in vivo; details: 100 ppm in 10% sucrose via cotton wicks, 72 hours post-treatment
# Description: as §1, §2
# [3] = test system: D α6 and C. elegans ric3 expressed in D.Mel-2 cells; type: binding, Drosophila melanogaster
# Description: D.Mel-2 cells were seeded into 75 cm^2 flasks at 1.9×10^7 cells/flask in Drosophila SFM containing antibiotic/antimicotic and incubated overnight at 27° C. The transfection mix was prepared in 12×75 mm polystyrene tubes by mixing 1630 μl sterile water, 40 μg pIB/V5-HisA/ric3, 40 μg pIB/V5-HisA/30D and 250 μl CellFectin. The reagents were mixed gently and incubated at room temp for 15 minutes. While the transfection mix was incubating, the cells were washed with 10 ml fresh Drosophila SFM without antibiotics; this media was then removed from the cells and replaced with 6 ml fresh Drosophila SFM without antibiotics. To the transfection mix was added 4 ml Drosophila SFM without antibiotics and this was then transferred to the flask. The reagents were gently mixed by pipetting up and down and then incubated overnight at 27° C.
# D.Mel-2 cells were purchased from Invitrogen (Carlsbad, Calif.) and grown in disposable 125 ml shake flasks using 50 ml volume. Cells were subcultured to 3×10^5 cells/ml twice per week in Drosophila SFM containing 5 ml/L Antibiotic-Antimycotic (100×) (Gibco, Carlsbad, Calif.). D.Mel-2 cells were seeded into a 12-well plate at a cell density of 5×10^5 cells/well and incubated overnight at 27° C. In a 12×75 mm polystyrene tube 6 μg pIB/V5-HisA/ric3, 82 μl sterile H2O and 12 μl CellFectin (Invitrogen, Carlsbad, Calif.) were added. The sample was mixed gently and incubated at room temperature for 15 minutes. While the transfection mix was incubating, media from one well of cells was removed and replaced with 1 ml fresh media without antibiotics. After 15 minutes, the media was removed from cells. To this transfection mix, 0.5 ml media (no antibiotics) was added. This solution was then added to the cells. The mixture was incubated for 48 hrs at 27° C. After 48 hrs, the cells were scraped from the plate using a cell scraper and split into 4 wells of a 6-well plate each containing 2 ml Drosophila SFM with antibiotics. Cells were allowed to attach for 1 hr at 27° C.; the media was removed and replaced with 2 ml fresh media containing 25 μg/ml Blasticidin S (Invitrogen, Carlsbad, Calif.). Cells were incubated at 27° C. for 5 days. After 5 days, the cells were scraped loose from the wells and combined into one tube. Cells were spun down at 600 rpm in a tabletop centrifuge; the media was removed and the cells were resuspended into a 50 ml shake culture in fresh Drosophila SFM containing 25 μg/ml Blasticidin S. The cells were incubated at 27° C./140 rpm. Cells were subcultured twice weekly back to cell density of 3×10^5 cells/ml. After 4 weeks the selection was cut back to 10 μg/ml Blasticidin S. After 3 months of growth under selection, a 12 well plate was seeded at 5×10^5 cells/well and cells were incubated over night at 27° C. The following reagents were added to each of three 12×75 mm polystyrene tubes: 2 μg pMT/V5-HisA/30D, 0.15 μg pCoHygro (Invitrogen, Carlsbad, Calif.) (a […] ratio of expression plasmid:selection plasmid), 89 μl sterile H2O and 12 μl CellFectin. The samples were mixed gently and incubated at room temp for 15 minutes and then transfected as described above. After 24 hrs, the media containing transfection mix was removed and replaced with 1 ml fresh media containing antibiotics. The incubation was continued at 27° C. for another 24 hrs. Cells were scraped loose from the 12-well plate (3 wells) and split into 2, 6-well plates. Cells were allowed to attach for 6 hours at which point, the media was replaced with 2 ml/well fresh media containing 200, 150, 100 or 50 μg/ml hygromycin B. The incubation was continued at 27° C.; every 4-5 days, the media was replaced with media containing hygromycin every 4-5 days. After 2 weeks of selection in the plates, the cells from the 200 μg/ml selection, were scraped loose and then gently pelleted and resuspended in 25 ml fresh media containing 200 μg/ml hygromycin B and then placed into a 125 ml shake flask.
# Dα6-nicotinic receptor = type: binding, Drosophila melanogaster
# Description: Xenopus oocytes were injected as previously described for the electrophysiological assay and were used intact for binding assays.
# Two main radioligands were used in binding assays: the conventional α7 radioligand, [^3]methyllycaconitine (MLA) and [^3]dihydrospinosyn A (DHSA). For both radioligands, the Binding Buffer used consisted of 10 mM sodium phosphate (7.2-7.4). All experiments using D.Mel-2 cell suspensions were carried out with 50 μl of cell suspension. For Xenopus oocyte binding assays, oocytes were pooled (2-5 oocytes) and transferred to 1 ml Binding Buffer. This was followed by gently aspirating the Binding Buffer and replacing with fresh Binding Buffer twice, to wash out any residual oocyte bathing media. The final volume of buffer added to each pool of oocytes was 50-100 μl. […] Subsequent dilutions were made in Binding Buffer. The final concentration of solvent was maintained at less than 0.1% in each well. […] For the cell extracts, bound radioactivity and free radioactivity fractions were separated by gentle vacuum through GF/C glass fiber filter mats using a TomTec (CT) 96-well cell harvester. […] Filter mats were dried in an oven at 60° C. and the radioactivity from samples was counted for three minutes with a Wallac MicroBeta Counter (Wallac, Conn.) using Meltilex solid-scintillant (PerkinElmer, Finland). […]
# [4] = test system: nicotinic acetylcholine receptor alpha-6 subunit (30D); type: cell-based, Drosophila melanogaster; also: key: '−' indicates a negligible current was induced; '+' indicates a small amplitude current; '++' indicates a moderate amplitude current; '++++' indicates a large amplitude current
# Description: (§3) Xenopus laevis (Xenopus 1, Ann Arbor, Mich.; Nasco, Fort Atkinson, Wis.) were anesthetized by bathing in a solution of 2 g/l tricaine methane sulfonate, and oocytes were surgically removed from the frog and placed in a culture solution that consisted of 96 mM NaCl, 2 mM KCl, 1.8 mM CaCl2, 1 mM MgCl2, 5 mM HEPES, 2.5 mM Na-pyruvate, 100 units/ml penicillin, and 0.1 mg/ml streptomycin, pH 7.6. Oocytes were dispersed in a nominally zero Ca^2+ protease treatment solution to defolliculate the oocytes. The protease treatment solution consisted of either 88 mM NaCl, 2.5 mM KCl, 1 mM MgCl2, 5 mM HEPES, 2.5 mM Na-pyruvate, 100 units/ml penicillin, and 0.1 mg/ml streptomycin, pH 7.6 plus 1.5 mg/ml collagenase IA (Sigma Chemical Co., St. Louis, Mo.). After isolation, the oocytes were thoroughly rinsed and returned to the above Ca^2+ containing culture solution and stored at 18° C.
# (§4) Synthesis of cRNA was performed as follows: Plasmid DNA was linearized with one of the following restriction enzymes; Not I, Xho I or Nhe I. The linearized DNA was subsequently used as template for cRNA synthesis using T7 mMessage mMachine kit (Ambion, Austin, Tex.) following the manufacturer's instructions.
# (§5) Micropipettes for injection of cRNA into Xenopus oocytes were pulled on a DMZ-Universal Puller (Zeitz-Instruments, München, Germany). The cRNA to be injected was drawn up into the micropipette with negative pressure. Approximately 10-50 ng of cRNA was injected into the oocytes by applying positive pressure using a Nanoject II oocyte injector (Drummond Scientific Co., Broomall, Pa.). Nucleic acid was introduced into the oocytes as follows: (1) nicotinic acetylcholine receptor alpha-6 subunit subunit (30D) (2) nicotinic alpha-7 receptor subunit (34E); (3) nicotinic acetylcholine receptor alpha-6 subunit and C. elegans ric-3 (30D and ric-3); (4) nicotinic alpha-7 receptor subunit and C. elegans ric-3 (34E and ric-3); (5) nicotinic acetylcholine receptor alpha-6 subunit and nicotinic alpha-7 receptor subunit (30D and 34E); and, (6) nicotinic acetylcholine receptor alpha-6 subunit, nicotinic alpha-7 receptor subunit and C. elegans ric-3 (30D, 34E and ric-3).
# (§6) The control external solution for voltage clamp recordings consisted of 88 mM NaCl, 1 mM KCl, 0.41 mM CaCl2, 2.4 mM NaHCO3, 0.3 mM Ca(NO3)2, 0.82 mM MgSO4.7H2O, and 15 mM HEPES, pH 7.6. The recording chamber was continuously perfused with a gravity-fed perfusion system. Nicotine (1 mM) was added to the external solution and then added to the perfusate for 30 seconds. Then, nicotine was washed from the external solution a minimum of 10 minutes. Thereafter, spinosyn A was dissolved in dimethylsulfoxide (DMSO) and then dissolved in the external solution at a final concentration of 10 μM and then added to the perfusate for 60 seconds. Then, the spinosyn A was washed from the external solution. The final concentration of DMSO never exceeded 0.1% (v/v).
# 34E/ric-3 = type: cell-based, Drosophila melanogaster; also: key: '−' indicates a negligible current was induced; '+' indicates a small amplitude current; '++' indicates a moderate amplitude current; '++++' indicates a large amplitude current
# Description: as §3, §4, §5, §6
# [5] = test system: nicotinic acetylcholine receptor alpha-5 subunit (34E); type: cell-based, Drosophila melanogaster; also: key: '−' indicates a negligible current was induced; '+' indicates a small amplitude current; '++' indicates a moderate amplitude current; '++++' indicates a large amplitude current
# Description: as §3, §4, §5, §6
# 34E/30D/ric-3 = type: cell-based, Drosophila melanogaster; parameters: key to the marks not given beside the values; details: spinosyn A 10 μM for 60 seconds, oocytes clamped to −60 mV, peak current; also: key: '−' indicates a negligible current was induced; '+' indicates a small amplitude current; '++' indicates a moderate amplitude current; '++++' indicates a large amplitude current
# Description: as §3, §4
# (§7) Micropipettes for injection of cRNA into Xenopus oocytes were pulled on a DMZ-Universal Puller (Zeitz-Instruments, München, Germany). […]
# 34E/30D = type: cell-based, Drosophila melanogaster; parameters: key to the marks not given beside the values; details: spinosyn A 10 μM for 60 seconds, oocytes clamped to −60 mV, peak current
# Description: as §3, §4, §7
# 30D/ric-3 = type: cell-based, Drosophila melanogaster; details: spinosyn A 10 μM for 60 seconds, oocytes clamped to −60 mV, peak current
# Description: as §3, §4, §5, §6
# [6] = D.Mel-2 cells expressing D α6 and C. elegans ric3
molecule,measurement,setting,value
21-butenyl spinosyn,mortality,[1],no significant mortality
same,resistance of spinosyn A resistant flies compared to wild-type flies (based on LD50),[1],> 100 fold
same,mortality,[2],all wild-type flies exhibited mortality
"CCN1C[C@]2(COC(=O)c3ccccc3N3C(=O)C[C@H](C)C3=O)CC[C@H](OC)[C@@]34[C@@H]5C[C@H]6[C@H](OC)[C@@H]5[C@](O)(C[C@@H]6OC)[C@@](O)([C@@H](OC)[C@H]23)[C@@H]14 [MLA, methyllycaconitine]",displacement of [3H]DHSA binding,[3]; [6],can be demonstrated at higher concentrations
same,overall affinity for this receptor complex,"[3]; [3H]DHSA binding assay, D.Mel-2 cells",relatively poor
"CN1CCCC1c1cccnc1 (centres unmarked) [Nicotine, nicotine]",% Displacement of Total Binding,Dα6-nicotinic receptor,72%
same,Nicotine Response,[4],−
same,Nicotine Response,34E/ric-3,+
same,Nicotine Response,[5],+
same,displacement of [3H]DHSA binding,[3],displacement
"CC[C@H]1CCC[C@H](O[C@H]2CC[C@H](N(C)C)[C@@H](C)O2)[C@@H](C)C(=O)C2=C[C@@H]3[C@@H](C=C[C@@H]4C[C@@H](O[C@@H]5O[C@@H](C)[C@H](OC)[C@@H](OC)[C@H]5OC)C[C@@H]34)[C@@H]2CC(=O)O1 [Spinosyn A, spinosyn A]",Spinosyn A Response,34E/30D/ric-3,++++
same,Spinosyn A Response,34E/30D,++
same,mortality,[1],no significant mortality
same,resistance of spinosyn A resistant flies compared to wild-type flies (based on LD50),[1],at least 100 fold
same,% Displacement of Total Binding,"Dα6-nicotinic receptor; 10 μM, [3H]MLA, intact Xenopus oocytes 3 days post-injection with Dmα6",72%
same,Spinosyn A Response,"[4]; 30D, spinosyn A 10 μM for 60 seconds, oocytes clamped to −60 mV, peak current",−
same,Spinosyn A Response,30D/ric-3,+
same,Spinosyn A Response,"34E/ric-3; 34E/ric-3, spinosyn A 10 μM for 60 seconds, oocytes clamped to −60 mV, peak current",−
same,Spinosyn A Response,"[5]; 34E, spinosyn A 10 μM for 60 seconds, oocytes clamped to −60 mV, peak current",−
same,displacement of [3H]DHSA binding,[3]; [6],significant displacement
same,mortality,[2],all wild-type flies exhibited mortality
C[N+](C)(C)CCOC(N)=O.[Cl-] [carbamylcholine],displacement of [3H]DHSA binding,[3]; [6],did not significantly displace
CC[C@H]1CCC[C@H](O[C@H]2CC[C@H](N(C)C)[C@@H](C)O2)[C@@H](C)C(=O)C2=C[C@H]3[C@@H]4C[C@H](O[C@@H]5O[C@@H](C)[C@H](OC)[C@@H](OC)[C@H]5OC)C[C@H]4CC[C@H]3[C@@H]2CC(=O)O1 [dihydrospinosyn A],displacement of [3H]DHSA binding,[3]; [6],significant displacement
Clc1ccc(C2CC3CCC2N3)cn1 (centres unmarked) [epibatidine],displacement of [3H]DHSA binding,[3]; [6],did not significantly displace
NS(=O)(=O)c1cc(C(=O)O)c(NCc2ccco2)cc1Cl [furosemide],displacement of [3H]DHSA binding,[3],No significant displacement
O=[N+]([O-])NC1=NCCN1Cc1ccc(Cl)nc1 [imidacloprid],displacement of [3H]DHSA binding,[3]; [6],did not significantly displace
CN1[C@@H](CC(=O)c2ccccc2)CCC[C@H]1C[C@H](O)c1ccccc1 [lobeline],displacement of [3H]DHSA binding,[3]; [6],did not significantly displace
CC[C@H]1CCC[C@H](O)[C@@H](C)C(=O)C2=C[C@@H]3[C@@H](C=C[C@@H]4C[C@@H](O[C@@H]5O[C@@H](C)[C@H](OC)[C@@H](OC)[C@H]5OC)C[C@@H]34)[C@@H]2CC(=O)O1 [pseudoagylcone of spinosyn A],displacement of [3H]DHSA binding,[3]; [6],Nor was there significant displacement
C[C@H](O)[C@H](O)[C@@H](O)[C@@H](O)C=O [rhamnose],displacement of [3H]DHSA binding,[3]; [6],No significant displacement
CN1COCN(Cc2cnc(Cl)s2)/C1=N\[N+](=O)[O-] [thiamethoxam],displacement of [3H]DHSA binding,[3]; [6],did not significantly displace
alpha-bungarotoxin,displacement of [3H]DHSA binding,[3],can be demonstrated at higher concentrations
same,overall affinity for this receptor complex,[3],relatively poor
